Among the data in ChEMBL document CHEMBL2040728, “New substituted 4H-chromenes as anticancer agents” (Bioorg Med Chem Lett, 2012) are inhibition and IC50 values, retold here.

Each structure is given as a SMILES string. pIC50: −log10 of the molar value. Active and inactive are the calls of the source. The calls are words filed in the database; no cut-off is given here.

What is called inhibition is the change of the read-out against control, counted positive when it falls. One may read the pIC50 as the IC50 on a negative log10 scale, so that one unit is a factor of ten. Read a high pIC50 as a low IC50.

The species entered for experiment [1] is Bos taurus. Put plainly: Inhibition of bovine brain tubulin polymerization at 5 uM after 20 mins by spectrophotometric analysis relative to control.
Experiment [2] has as its system PC-3. Put plainly: Antiproliferative activity against human PC3 cells after 96 hrs by SRB assay. It is filed as functional, cell-based. Conditions: PC-3, 96 h. On the technique in general: In SRB staining, fixed cells bind dye roughly in proportion to their protein.
A short description of experiment [3]: Antiproliferative activity against human WM164 cells after 48 hrs by SRB assay. Type of experiment: functional, cell-based. To be noted: WM164, 48 h.
The nature of experiment [4]: Antiproliferative activity against human paclitaxel-resistant PC3-TxR cells after 96 hrs by SRB assay. It is filed as functional, cell-based.
Experiment [5] concerns LNCaP. The experiment is described as follows: Antiproliferative activity against human LNCAP cells after 96 hrs by SRB assay. Type of experiment: functional, cell-based.
The subject of experiment [6] is A-375. Put plainly: Antiproliferative activity against human A375 cells after 48 hrs by SRB assay. It is filed as functional, cell-based. To be noted: A-375, 48 h.
The nature of experiment [7]: Cytotoxicity against mouse primary astrocytes after 5 days by MTT assay. It is filed as cell-based. Conditions: Astrocyte, 120 h. In general terms: Tetrazolium dyes change colour on reduction, which living cells bring about.
Experiment [8] in a line: Antiproliferative activity against human U87 cells after 5 days by MTT assay. It is filed as functional, cell-based, U-87MG ATCC. Conditions: U-87 MG, 120 h.
The subject of experiment [9] is T98G. The experiment is described as follows: Antiproliferative activity against human T98G cells after 5 days by MTT assay. To be noted: 120 h. It is filed as functional, cell-based.
Experiment [10] can be described thus: Antiproliferative activity against human A172 cells after 5 days by MTT assay. Type of experiment: functional, cell-based. To be noted: A 172, 120 h.
The species entered for experiment [11] is Bos taurus. Put plainly: Inhibition of bovine brain tubulin polymerization at 10 uM after 20 mins by spectrophotometric analysis.
The species named for experiment [12] is Bos taurus. The experiment is described as follows: Inhibition of bovine brain tubulin polymerization after 20 mins by spectrophotometric analysis.
Experiment [13] is described as follows: Antiproliferative activity against human LN18 cells after 5 days by MTT assay. It is filed as functional, cell-based. Conditions: LN-18, 120 h.
Experiment [14] is filed under the species Bos taurus. The experiment is described as follows: Inhibition of bovine brain tubulin polymerization at 20 uM after 20 mins by spectrophotometric analysis.

For the molecule `CC(=O)O[C@H]1C(=O)[C@@]2(C)[C@H]([C@H](OC(=O)c3ccccc3)[C@]3(O)C[C@H](OC(=O)[C@H](O)[C@@H](NC(=O)c4ccccc4)c4ccccc4)C(C)=C1C3(C)C)[C@]1(OC(C)=O)CO[C@@H]1C[C@@H]2O`, the inhibition result in experiment [1] is “inactive”.

For `CN(C)c1ccc2c(c1)OC(N)=C(C#N)C2c1cccc2c(Br)cccc12` (centres undefined), the pIC50 in [2] is 6.41; in experiment [3] it was 6.66; in experiment [4], 6.68; in experiment [5] it was 6.55; in experiment [6], 6.85.

As for `COc1ccc(C2C(C#N)=C(N)Oc3cc(N(C)C)ccc32)c2ccccc12` (centres undefined), the pIC50 is 6.37 in [2]; 6.31 in [3]; 6.28 in experiment [4]; 6.12 in experiment [5]; 6.36 in [6].

For the molecule `CN(C)c1ccc2c(c1)OC(N)=C(C#N)C2c1ccc(N(C)C)c2ccccc12` (centres undefined), the pIC50 in experiment [7] is 5.69; in experiment [8] it was 7.69; in experiment [9], 7.90; in experiment [10], 8.13; in experiment [2], 6.66; in experiment [3] it was 6.80. Also, the pIC50 in experiment [4] was 6.64; in [13] it was 7.88; in [5] it was 6.85; in experiment [6], 7.10. The inhibition in experiment [11] was 29%; in experiment [12] it was “Dose-dependent effect”; in [14] it was 68%.
